Experimental findings from patent US11840560B2, “Prodrugs and uses thereof” (Novo Nordisk A/S, priority 2022, dated 2023) are described below.

*1 amine or outer side, *2 acyl side, *3 side chain or, on linkers, in order; H or OH if unused. Side-chain parts run from the residue outwards. [ ]: non-standard residue; d: D form. The star is where a group is joined. X1 = O=C(O)CCCCCCCCCCCCCCC(=O)N[C@@H](CCC(=O)NCCCC[C@H](NC(=O)CC[C@H](NC(=O)CCCCCCCCCCCCCCC(=O)O)C(=O)O)C(=O)*)C(=O)O; N(2-Aminoethyl)Gly = O=C(CN(CCN[*:3])[*:1])[*:2]; C18 diacid = O=C(O)CCCCCCCCCCCCCCCCC(=O)*; C16 diacid = O=C(O)CCCCCCCCCCCCCCC(=O)*; γGlu = O=C(O)[C@H](CCC(=O)[*:2])N[*:1]; εLys = N[C@@H](CCCCN[*:1])C(=O)[*:2]; AEEA = NCCOCCOCC(=O)O; Aib = CC(C)(N)C(=O)O; Sar = CNCC(=O)O

Data set [1] can be described thus: physchem. As to conditions: buffer, pH 7.4. It counts as physicochemical. How it is done: The assay was performed to investigate the conversion half-life of prodrug to drug of the prodrugs of the invention. The conversion half-life was investigated in vitro at pH 7.4 upon incubation at 37° C.
Test compounds were dissolved to a concentration of 100 μM in phosphate-buffered saline (140 mM NaCl, 2.07 mM KCl, 8.05 mM Na2HPO4, 1.96 mM KH2PO4, pH 7.4). Solution pH was measured after dissolution and adjusted to pH 7.4 with aqueous NaOH if necessary. The solution was filtered through a 0.22 μm syringe filter, then incubated in a water bath at 37° C. Aliquots were withdrawn at defined timepoints, e.g. every 24-72 hours, for LCMS analysis.
LCMS analysis was performed using the procedure defined in LCMS_A above. The AUC of the prodrug, active drug, and DKP were determined using UV detection at 214 nm, and the ratio of prodrug AUC over total AUC of prodrug plus active drug plus DKP was calculated. The negative natural logarithm of this ratio was plotted over time, and a linear regression of this relationship was then performed.
The prodrug to drug conversion half-life of the compounds of the invention was measured as described in General Methods for Measuring Conversion Half-life.

Data set [2] is described as follows: in vivo. Details: species or system beagle dogs. As to conditions: dog, po, 300 mg; for Tmax / half-life: male, beagle. On the procedure:
The purpose of this method is to determine the terminal half-life and plasma exposure in vivo of the compounds of the present invention after p.o. administration to beagle dogs, i.e. the terminal half-life and concentration of test substance that reaches circulation with time. This is done in a pharmacokinetic (PK) study, where these parameters of the compound in question are determined. By terminal half-life is generally meant the period of time it takes to halve a certain plasma concentration, measured after the initial distribution phase.
Tablet compositions comprising the test compounds obtained from Example 1 and SNAC (sodium N-(8-(2-hydroxybenzoyl)amino)caprylate) were prepared according to methods known to the person skilled in the art by mixing test substance with roller compacted SNAC and magnesium stearate as e.g. described in WO 2019/149880. Each tablet was comprised of 7.7 mg magnesium stearate, 2-4 mg of each compound tested, and 300 mg SNAC.
Male beagle dogs, 1-7 years of age and weighing 9-17 kg during the study period, were included in the study. The dogs were dosed in a fasting state. The dogs were group housed in pens (12 hours light: 12 hours dark), and fed individually and restrictedly once daily with Royal Canin Medium Adult dog food (Royal Canin Products, China Branch, or Brogaarden A/S, Denmark). The dogs were used for repeated PK studies with a suitable wash-out period between successive dosing. An appropriate acclimatisation period was given prior to initiation of the first PK study. All handling, dosing, and blood sampling of the animals were performed by trained and skilled staff. Before the studies, the dogs were fasted overnight and from 0 to 4 hours after dosing. The dogs were restricted to water 1 hour before dosing until 4 hours after dosing, but otherwise had adlibitum access to water during the whole period.
The compositions were administered by a single oral dosing to the dogs in groups of 6-8 dogs. The tablets were administered in the following manner: 10 min prior to tablet administration, the dogs may be dosed subcutaneously with approximately 3 nmol/kg of SEQ ID NO.: 7 ([…]), then tablets were placed in the back of the mouth of the dog to prevent chewing. The mouth was then closed, and 10 mL of tap water was given by syringe or gavage to facilitate swallowing of the tablet.
One blood sample was drawn before dosing, and additional samples were drawn at predefined time points after dosing, such as for up to 600 hours, to adequately cover the full plasma concentration-time absorption profile of the test substance. For each blood sample time point, approximately 0.8 mL of whole blood was collected in a 1.5 mL EDTA-coated tube, which was gently turned to mix the sample with EDTA. Blood samples were collected in EDTA buffer (8 mM) and then centrifuged at 4° C. and 2000 g for 10 minutes. Plasma was pipetted into Micronic tubes on dry ice, and kept at −20° C. or lower until analysis. Blood samples were taken as appropriate, for example from a venflon in the cephalic vein in the front leg for the first 2 hours and then with syringe from the jugular vein for the rest of the time points. The first few drops were allowed to drain from the venflon to avoid heparin saline from the venflon in the sample. All blood samples were collected into test tubes containing EDTA for stabilisation and kept on ice until centrifugation. Plasma was separated from whole blood by centrifugation and the plasma was stored at −20° C. or lower until analysis.
The plasma was analysed for test substance using LC-MS (Liquid Chromatography-Mass Spectrometry) as known to the person skilled in the art. […]

The half-life is how long it takes for the measured level to halve. In general, Tmax refers to the time at which the peak concentration occurs. Take `CC[C@H](C)[C@H](NC(=O)[C@H](CC(C)C)NC(=O)[C@H](Cc1c[nH]c2ccccc12)NC(=O)[C@H](CCC(N)=O)NC(=O)[C@@H](NC(=O)[C@H](Cc1ccccc1)NC(=O)[C@H](C)NC(=O)[C@H](CCCCNC(=O)COCCOCCNC(=O)COCCOCCNC(=O)CC[C@H](NC(=O)CCCCCCCCCCCCCCCCCCC(=O)O)C(=O)O)NC(=O)[C@H](CCC(N)=O)NC(=O)[C@H](C)NC(=O)[C@@H](NC(=O)[C@H](CCCCN)NC(=O)[C@H](CC(=O)O)NC(=O)[C@H](CC(C)C)NC(=O)C(C)(C)NC(=O)[C@@H](NC(=O)[C@H](CO)NC(=O)[C@H](Cc1ccc(O)cc1)NC(=O)[C@H](CC(=O)O)NC(=O)[C@H](CO)NC(=O)[C@@H](NC(=O)[C@H](Cc1ccccc1)NC(=O)[C@@H](NC(=O)CNC(=O)[C@H](CCC(=O)O)NC(=O)C(C)(C)NC(=O)[C@H](Cc1ccc(O)cc1)NC(=O)CN(C)C(=O)[C@@H](N)CCCCNC(=O)CC[C@H](NC(=O)CCCCCCCCCCCCCCC(=O)O)C(=O)O)[C@@H](C)O)[C@@H](C)O)[C@@H](C)CC)[C@@H](C)CC)C(C)C)C(=O)N[C@@H](C)C(=O)NCC(=O)NCC(=O)N1CCC[C@H]1C(=O)N[C@@H](CO)C(=O)N[C@@H](CO)C(=O)NCC(=O)N[C@@H](C)C(=O)N1CCC[C@H]1C(=O)N1CCC[C@H]1C(=O)N1CCC[C@H]1C(=O)N[C@@H](CO)C(N)=O` [Compound 18]: the half-life at 100 μM in data set [1] was 4.21 days. In data set [2], the AUC/Dose was determined as 13.3 kg·h/L, the Cmax/Dose is 0.15 kg/L, the Tmax amounted to 4 h and the half-life is 3.67 days.

Compound “H-G[N(2-Aminoethyl)Gly]([γGlu-C16 diacid])Y[Aib]EGTFTSDYSILLEEQAAREFIEWLLAGGPSK([AEEA-AEEA-γGlu-C16 diacid])GAPPPS-OH [Compound 2]” showed a half-life at 100 μM in data set [1] of 15.1 days. In data set [2], the AUC/Dose worked out at 22.9 kg·h/L, the Cmax/Dose stood at 0.18 kg/L, the time to peak (Tmax) was found to be 4 h and the half-life is 5.92 days.

In the case of “H-K(X1)[Sar]Y[Aib]EGTFTSDYSILLEEQAAREFIEWLLAGGPSK([εLys-εLys-γGlu-C16 diacid])GAPPPS-OH [Compound 14]”, the half-life at 100 μM in data set [1] was 6.92 days. In addition, in data set [2], the AUC/Dose is 43.6 kg·h/L, the Cmax/Dose came out at 0.38 kg/L, the Tmax worked out at 5.5 h and the half-life is 4.96 days.

For the compound “H-K([γGlu-C16 diacid])[Sar]Y[Aib]EGTFTSDYSILLEEQAAREFIEWLLAGGPSK([εLys-εLys-γGlu-C16 diacid])GAPPPS-OH [Compound 12]”, the half-life at 100 μM in data set [1] is 5.38 days. Also, in data set [2], the AUC/Dose was 50.8 kg·h/L, the Cmax/Dose was 0.46 kg/L, the time to peak (Tmax) was 1.3 h and the half-life was 5.96 days.

In data set [1], “H-K([γGlu-C16 diacid])[Sar]Y[Aib]EGTFTSDYSILLEK([εLys-εLys-γGlu-C18 diacid])QAAREFIEWLLAGGPSSGAPPPS-OH [Compound 16]” gave a half-life at 100 μM of 4.88 days. In data set [2], the AUC/Dose came out at 67.6 kg·h/L, the Cmax/Dose was determined as 0.73 kg/L, the Tmax amounted to 4 h and the half-life was 4 days.

Turning to “H-K([γGlu-C18 diacid])[Sar]Y[Aib]EGTFTSDYSILLEEQAAREFIEWLLAGGPSK([εLys-εLys-γGlu-C16 diacid])GAPPPS-OH [Compound 13]”, in data set [1], the half-life at 100 μM is 5.71 days. For the same compound, in data set [2], the AUC/Dose turned out to be 41.3 kg·h/L, the Cmax/Dose is 0.36 kg/L, the time to peak (Tmax) came out at 4.3 h and the half-life is 5.04 days.

“H-K([γGlu-C18 diacid])[Sar]Y[Aib]EGTFTSDYSILLEEQAAREFIEWLLAGGPSK([εLys-εLys-γGlu-C18 diacid])GAPPPS-OH [Compound 15]” showed a half-life at 100 μM in data set [1] of 5.29 days. In data set [2], the AUC/Dose stood at 21.7 kg·h/L, the Cmax/Dose came out at 0.20 kg/L, the time of peak concentration (Tmax) came out at 1.5 h and the half-life is 5.17 days.

The compound “H-L[N(2-Aminoethyl)Gly]([γGlu-C16 diacid])Y[Aib]EGTFTSDYSILLEEQAAREFIEWLLAGGPSK([AEEA-AEEA-γGlu-C16 diacid])GAPPPS-OH [Compound 5]” had a half-life at 100 μM in data set [1] of 3.08 days. In addition, in data set [2], the AUC/Dose was 23.4 kg·h/L, the Cmax/Dose amounted to 0.25 kg/L, the Tmax came to 7 h and the half-life is 4.42 days.
